From article PMC11881035, “^68Ga-Labeled Glycopeptides as Effective Tools for Liver Function Imaging” (Molecular Pharmaceutics, 2025)
Like-named read-outs stand apart in the source and are kept apart here. Where a SMILES comes first, the peptide text is derived from it. The star is where a group is joined. X1 = O=C(CCCCc1cn([C@@H]2O[C@H](CO)[C@H](O)[C@H](O)[C@H]2O)nn1)*; NODAGA = O=C(O)CN1CCN(CC(=O)O)CCN(C(CCC(=O)*)C(=O)O)CC1; GABA = NCCCC(=O)O

Tests used:
log D determination = type: physicochemical
Procedure: (§1) The ^68Ge/^68Ga generator, devices for analytical HPLC, semipreparative HPLC, mass spectrometry, radio-thin layer chromatography, gamma counter and animal models for biodistribution and imaging studies including the image reconstruction procedures were the same as described before.[22] Stability assays in PBS and human blood serum, protein binding as well as determination of log D values followed established protocols.[25] Binding affinities (IC50) of selected ligands were determined in an isolated receptor-based assay according to a previously published procedure with minor modifications.[22] Dilutions of nonradioactive complexes were made with PBS + 0.1% BSA (10^–5–10^–12 M). Preparation of [^125I]I-Asialoorosomucoid which serves as the radioactive standard ligand has been published recently.[21]

[1] = protein binding in human serum; type: in vitro ADME; settings: human, serum
Procedure: as §1

[2] = system: healthy female BALB/c mice; assay: biodistribution in healthy BALB/c mice; settings: mouse, in vivo
Procedure: as §1
(§2) Animal experiments were performed in accordance with the Austrian animal experiments law (BGBl. I Nr. 114/2012) and the institution’s animal welfare standards as approved by the Austrian Federal Ministry of Education, Science and Research (BMBWF, 2022–0.311.708). Imaging experiments were conducted at Werner Siemens Imaging Center (Tübingen, Germany) according to the German animal welfare act as approved by the local authorities (R5/19 G, R09/21 G).
(§3) Figure 2 Biodistribution data (% ID/g) of ^68Ga-labeled NODAGA-GalNAc-NonaLysan, NODAGA-NonaLysan, NODAGA-HexaLysan, and NODAGA-TriLysan in healthy BALB/c mice at 10, 30, and 60 min p.i. (100 pmol, 1 MBq).

[3] = biodistribution in healthy BALB/c mice; settings: mouse, in vivo
Procedure: as §1, §2, §3

complex stability in PBS = type: physicochemical
Procedure: as §1

[4] = complex stability in human blood serum; type: in vitro ADME
Procedure: as §1

[5] = 2 min, read-out: protein binding (%) (converted)
[6] = 30 min, read-out: protein binding (%) (converted)

NC(=O)CNC(=O)CNC(=O)[C@H](CCCCNC(=O)CCCCc1cn([C@@H]2O[C@H](CO)[C@H](O)[C@H](O)[C@H]2O)nn1)NC(=O)CNC(=O)CNC(=O)[C@H](CCCCNC(=O)CCCCc1cn([C@@H]2O[C@H](CO)[C@H](O)[C@H](O)[C@H]2O)nn1)NC(=O)CNC(=O)CNC(=O)[C@H](CCCCNC(=O)CCCCc1cn([C@@H]2O[C@H](CO)[C@H](O)[C@H](O)[C@H]2O)nn1)NC(=O)CNC(=O)CNC(=O)[C@H](CCCCNC(=O)CCCCc1cn([C@@H]2O[C@H](CO)[C@H](O)[C@H](O)[C@H]2O)nn1)NC(=O)CNC(=O)CNC(=O)[C@H](CCCCNC(=O)CCCCc1cn([C@@H]2O[C@H](CO)[C@H](O)[C@H](O)[C@H]2O)nn1)NC(=O)CNC(=O)CNC(=O)[C@H](CCCCNC(=O)CCCCc1cn([C@@H]2O[C@H](CO)[C@H](O)[C@H](O)[C@H]2O)nn1)NC(=O)CCCNC(=O)CCC(C(=O)O)N1CCN(CC(=O)O)CCN(CC(=O)O)CC1 (stereo partly drawn) [[^68Ga]Ga-NODAGA-HexaLysan, metal not drawn] ({NODAGA-GABA}-K(X1)GGK(X1)GGK(X1)GGK(X1)GGK(X1)GGK(X1)GG-NH2)
logD (log D determination): -4.34 | fraction unbound [1, 5]: 0.824 | fraction unbound [1, 6]: 0.782 | fraction unbound ([1]; protein binding (%)): 0.785 | Liver uptake ([2]; 0.5 h): 55.7 ± 7.4 % ID/g | Femur uptake ([2]; 1 h): 0 % ID/g | tissue uptake at 10 min ([3]; Blood uptake): 2.1 ± 0.04 %ID/g | tissue uptake at 0.5 h ([3]; Blood uptake): 0.6 ± 0.1 %ID/g | tissue uptake at 1 h ([3]; Blood uptake): 1.1 ± 0.4 %ID/g | tissue uptake at 10 min ([3]; Femur uptake): 0.5 ± 0.1 %ID/g | tissue uptake at 0.5 h ([3]; Femur uptake): 0.3 ± 0.03 %ID/g | tissue uptake at 10 min ([3]; Heart uptake): 0.9 ± 0.1 %ID/g | tissue uptake at 0.5 h ([3]; Heart uptake): 0.4 ± 0.1 %ID/g | tissue uptake at 1 h ([3]; Heart uptake): 0.3 ± 0.02 %ID/g | tissue uptake at 10 min ([3]; Intestine uptake): 1.2 ± 0.3 %ID/g | tissue uptake at 0.5 h ([3]; Intestine uptake): 4 ± 0.3 %ID/g | tissue uptake at 1 h ([3]; Intestine uptake): 5.9 ± 1.7 %ID/g | tissue uptake at 10 min ([3]; Kidneys uptake): 4.8 ± 0.3 %ID/g | tissue uptake at 0.5 h ([3]; Kidneys uptake): 1.9 ± 0.2 %ID/g | tissue uptake at 1 h ([3]; Kidneys uptake): 1.3 ± 0.3 %ID/g | tissue uptake at 10 min ([3]; Liver uptake): 54.8 ± 3 %ID/g | tissue uptake at 0.5 h ([3]; Liver uptake): 55.5 ± 7.4 %ID/g | tissue uptake at 1 h ([3]; Liver uptake): 45.9 ± 11.8 %ID/g | tissue uptake at 10 min ([3]; Lung uptake): 1.6 ± 0.2 %ID/g | tissue uptake at 0.5 h ([3]; Lung uptake): 0.8 ± 0.1 %ID/g | tissue uptake at 1 h ([3]; Lung uptake): 0.6 ± 0.2 %ID/g | tissue uptake at 10 min ([3]; Muscle uptake): 0.9 ± 1.2 %ID/g | tissue uptake at 0.5 h ([3]; Muscle uptake): 0.6 ± 0.03 %ID/g | tissue uptake at 1 h ([3]; Muscle uptake): 0.4 ± 0.04 %ID/g | tissue uptake at 10 min ([3]; Pancreas uptake): 0.9 ± 0.1 %ID/g | tissue uptake at 0.5 h ([3]; Pancreas uptake): 0.7 ± 0.1 %ID/g | tissue uptake at 1 h ([3]; Pancreas uptake): 0.5 ± 0.1 %ID/g | tissue uptake at 10 min ([3]; Spleen uptake): 0.5 ± 0.1 %ID/g | tissue uptake at 0.5 h ([3]; Spleen uptake): 0.2 ± 0.1 %ID/g | tissue uptake at 1 h ([3]; Spleen uptake): 0.2 ± 0.02 %ID/g | tissue uptake at 10 min ([3]; Stomach uptake): 1.3 ± 0.3 %ID/g | tissue uptake at 0.5 h ([3]; Stomach uptake): 1.2 ± 0.3 %ID/g | tissue uptake at 1 h ([3]; Stomach uptake): 0.4 ± 0.1 %ID/g

NC(=O)CNC(=O)CNC(=O)[C@H](CCCCNC(=O)CCCCc1cn([C@@H]2O[C@H](CO)[C@H](O)[C@H](O)[C@H]2O)nn1)NC(=O)CNC(=O)CNC(=O)[C@H](CCCCNC(=O)CCCCc1cn([C@@H]2O[C@H](CO)[C@H](O)[C@H](O)[C@H]2O)nn1)NC(=O)CNC(=O)CNC(=O)[C@H](CCCCNC(=O)CCCCc1cn([C@@H]2O[C@H](CO)[C@H](O)[C@H](O)[C@H]2O)nn1)NC(=O)CCCNC(=O)CCC(C(=O)O)N1CCN(CC(=O)O)CCN(CC(=O)O)CC1 (stereo partly drawn) [[^68Ga]Ga-NODAGA-TriLysan, metal not drawn] ({NODAGA-GABA}-K(X1)GGK(X1)GGK(X1)GG-NH2)
logD (log D determination): -3.52 | fraction unbound [1, 5]: 0.924 | fraction unbound [1, 6]: 0.945 | fraction unbound ([1]; 60 min, read-out: protein binding (%) (converted)): 0.908 | fraction unbound ([1]; 120 min, read-out: protein binding (%) (converted)): 0.864 | complex stability in PBS (% intact ligand) (complex stability in PBS; 2 min): 99.7% | complex stability in PBS (% intact ligand) (complex stability in PBS; 30 min): 99.8% | complex stability in PBS (% intact ligand) (complex stability in PBS; 60 min): 99.8% | complex stability in PBS (% intact ligand) (complex stability in PBS; 120 min): 99.8% | complex stability in serum (% intact ligand) ([4]; 2 min): 99.9% | complex stability in serum (% intact ligand) ([4]; 30 min): 99.9% | complex stability in serum (% intact ligand) ([4]; 60 min): 99.9% | complex stability in serum (% intact ligand) ([4]; 120 min): 99.9% | tissue uptake at 10 min ([3]; 10 min p.i., read-out: Blood uptake): 3.6 ± 0.1 %ID/g | tissue uptake at 10 min ([3]; 10 min p.i., read-out: Femur uptake): 0.9 ± 0.3 %ID/g | tissue uptake at 10 min ([3]; 10 min p.i., read-out: Heart uptake): 1.4 ± 0.01 %ID/g | tissue uptake at 10 min ([3]; 10 min p.i., read-out: Intestine uptake): 1.2 ± 0.3 %ID/g | tissue uptake at 10 min ([3]; 10 min p.i., read-out: Kidneys uptake): 7.6 ± 1.4 %ID/g | tissue uptake at 10 min ([3]; 10 min p.i., read-out: Liver uptake): 9.5 ± 1.6 %ID/g | tissue uptake at 10 min ([3]; 10 min p.i., read-out: Lung uptake): 2.6 ± 0.2 %ID/g | tissue uptake at 10 min ([3]; 10 min p.i., read-out: Muscle uptake): 0.9 ± 0.1 %ID/g | tissue uptake at 10 min ([3]; 10 min p.i., read-out: Pancreas uptake): 1 ± 0.04 %ID/g | tissue uptake at 10 min ([3]; 10 min p.i., read-out: Spleen uptake): 1 ± 0.01 %ID/g | tissue uptake at 10 min ([3]; 10 min p.i., read-out: Stomach uptake): 1.6 ± 0.2 %ID/g | tissue uptake at 0.5 h ([3]; 30 min p.i., read-out: Blood uptake): 1.6 ± 0.2 %ID/g | tissue uptake at 0.5 h ([3]; 30 min p.i., read-out: Femur uptake): 0.4 ± 0.02 %ID/g | tissue uptake at 0.5 h ([3]; 30 min p.i., read-out: Heart uptake): 0.6 ± 0.04 %ID/g | tissue uptake at 0.5 h ([3]; 30 min p.i., read-out: Intestine uptake): 1.1 ± 0.02 %ID/g | tissue uptake at 0.5 h ([3]; 30 min p.i., read-out: Kidneys uptake): 5 ± 0.02 %ID/g | tissue uptake at 0.5 h ([3]; 30 min p.i., read-out: Liver uptake): 9.4 ± 2 %ID/g | tissue uptake at 0.5 h ([3]; 30 min p.i., read-out: Lung uptake): 1.2 ± 0.1 %ID/g | tissue uptake at 0.5 h ([3]; 30 min p.i., read-out: Muscle uptake): 0.4 ± 0.04 %ID/g | tissue uptake at 0.5 h ([3]; 30 min p.i., read-out: Pancreas uptake): 0.4 %ID/g | tissue uptake at 0.5 h ([3]; 30 min p.i., read-out: Spleen uptake): 0.4 ± 0.02 %ID/g | tissue uptake at 0.5 h ([3]; 30 min p.i., read-out: Stomach uptake): 0.9 ± 0.1 %ID/g | tissue uptake at 1 h ([3]; 60 min p.i., read-out: Blood uptake): 0.3 ± 0.01 %ID/g | tissue uptake at 1 h ([3]; 60 min p.i., read-out: Femur uptake): 0.1 ± 0.01 %ID/g | tissue uptake at 1 h ([3]; 60 min p.i., read-out: Heart uptake): 0.2 ± 0.01 %ID/g | tissue uptake at 1 h ([3]; 60 min p.i., read-out: Intestine uptake): 1 ± 0.3 %ID/g | tissue uptake at 1 h ([3]; 60 min p.i., read-out: Kidneys uptake): 2 ± 0.3 %ID/g | tissue uptake at 1 h ([3]; 60 min p.i., read-out: Liver uptake): 9.2 ± 0.3 %ID/g | tissue uptake at 1 h ([3]; 60 min p.i., read-out: Lung uptake): 0.5 ± 0.1 %ID/g | tissue uptake at 1 h ([3]; 60 min p.i., read-out: Muscle uptake): 0.1 %ID/g | tissue uptake at 1 h ([3]; 60 min p.i., read-out: Pancreas uptake): 0.2 ± 0.01 %ID/g | tissue uptake at 1 h ([3]; 60 min p.i., read-out: Spleen uptake): 0.2 %ID/g | tissue uptake at 1 h ([3]; 60 min p.i., read-out: Stomach uptake): 0.3 ± 0.01 %ID/g
